Columns and labels:
[1] = system: A549/ATCC; test: NCI anticancer screen, A549/ATCC; assay type: cell-based, human; details: Homo sapiens, Non-Small Cell Lung, 48 h
[2] = system: SF-268; test: NCI anticancer screen, SF-268; assay type: cell-based, human; details: Homo sapiens; SF-268, CNS, 48 h
[3] = system: COLO 205; test: NCI anticancer screen, COLO 205; assay type: cell-based, human; details: Homo sapiens; COLO 205, Colon, 48 h
[4] = system: OVCAR-4; test: NCI anticancer screen, OVCAR-4; assay type: cell-based, human; details: Homo sapiens; OVCAR-4, Ovarian, 48 h
[5] = system: 786-0; test: NCI anticancer screen, 786-0; assay type: cell-based, human; details: Homo sapiens; 786-0, Renal, 48 h
[6] = system: UACC-62; test: NCI anticancer screen, UACC-62; assay type: cell-based, human; details: Homo sapiens; UACC-62, Melanoma, 48 h
[7] = target: T1, wildtype human PAI-1 (Homo sapiens, UniProt P05121); test: PAI-1/uPA assay (residual uPA activity, fluorescent substrate SpectroFluor); assay type: biochemical; details: for Conc. of compound required for PAI-1 inhibition (result in words): within the concentration range tested
T1 construct: purchased Molecular Innovations Lot# HWT-804
In short: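 Wildtype human PAI-1 (6 nM) preincubated 15-20 min at RT with compound (10 nM to 100 μM final) in HEPES buffer pH 6.6, then with uPA (8 nM, HMW) 5 min. SpectroFluor (0.1 mM) cleavage followed 30 min at 37 °C (ex 360/em 440 nm); PAI-1 activity expressed as % of untreated PAI-1.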

[8] = system: SK-MEL-28; test: NCI anticancer screen, SK-MEL-28; assay type: cell-based, human; details: Homo sapiens; SK-MEL-28, Melanoma, 48 h
[9] = system: HL-60(TB); test: NCI anticancer screen, HL-60(TB); assay type: cell-based, human; details: Homo sapiens, Leukemia, 48 h
[10] = system: RXF 393; test: NCI anticancer screen, RXF 393; assay type: cell-based, human; details: Homo sapiens; RXF 393, Renal, 48 h
[11] = system: SF-539; test: NCI anticancer screen, SF-539; assay type: cell-based, human; details: Homo sapiens; SF-539, CNS, 48 h
[12] = system: SNB-19; test: NCI anticancer screen, SNB-19; assay type: cell-based, human; details: Homo sapiens; SNB-19, CNS, 48 h
[13] = system: ACHN; test: NCI anticancer screen, ACHN; assay type: cell-based, human; details: Homo sapiens, Renal, 48 h
[14] = system: SR; test: NCI anticancer screen, SR; assay type: cell-based, human; details: Homo sapiens, Leukemia, 48 h
[15] = system: HOP-92; test: NCI anticancer screen, HOP-92; assay type: cell-based, human; details: Homo sapiens; HOP-92, Non-Small Cell Lung, 48 h
[16] = system: UACC-257; test: NCI anticancer screen, UACC-257; assay type: cell-based, human; details: Homo sapiens; UACC-257, Melanoma, 48 h
[17] = system: HT29; test: NCI anticancer screen, HT29; assay type: cell-based, human; details: Homo sapiens, HT-29; HT29, Colon, 48 h
[18] = system: HCT-15; test: NCI anticancer screen, HCT-15; assay type: cell-based, human; details: Homo sapiens; HCT-15, Colon, 48 h
[19] = system: BT-549; test: NCI anticancer screen, BT-549; assay type: cell-based, human; details: Homo sapiens; BT-549, Breast, 48 h
[20] = system: HCC-2998; test: NCI anticancer screen, HCC-2998; assay type: cell-based, human; details: Homo sapiens; HCC-2998, Colon, 48 h
[21] = system: LOX IMVI; test: NCI anticancer screen, LOX IMVI; assay type: cell-based, human; details: Homo sapiens, Melanoma, 48 h
[22] = system: SK-OV-3; test: NCI anticancer screen, SK-OV-3; assay type: cell-based, human; details: Homo sapiens; SK-OV-3, Ovarian, 48 h
[23] = system: M14; test: NCI anticancer screen, M14; assay type: cell-based, human; details: Homo sapiens; M14, Melanoma, 48 h

T1 sequence (P05121 24-402): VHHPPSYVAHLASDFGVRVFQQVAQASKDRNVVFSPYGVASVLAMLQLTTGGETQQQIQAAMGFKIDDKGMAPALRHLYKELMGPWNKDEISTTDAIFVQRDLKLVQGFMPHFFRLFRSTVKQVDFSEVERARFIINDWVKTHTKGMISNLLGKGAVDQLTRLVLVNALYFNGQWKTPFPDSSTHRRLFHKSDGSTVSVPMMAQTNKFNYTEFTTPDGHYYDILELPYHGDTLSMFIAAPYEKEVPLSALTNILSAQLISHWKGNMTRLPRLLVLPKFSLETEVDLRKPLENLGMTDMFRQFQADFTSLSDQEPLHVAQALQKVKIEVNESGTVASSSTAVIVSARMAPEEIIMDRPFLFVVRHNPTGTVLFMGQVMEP

Row | Structure (SMILES) | GI50 [1] [µM] | GI50 [2] [µM] | GI50 [3] [µM] | GI50 [4] [µM] | GI50 [5] [µM] | GI50 [6] [µM] | GI50 [8] [µM] | GI50 [9] [µM] | GI50 [10] [µM] | GI50 [11] [µM] | GI50 [12] [µM] | GI50 [13] [µM] | GI50 [14] [µM] | GI50 [15] [µM] | GI50 [16] [µM] | GI50 [17] [µM] | GI50 [18] [µM] | GI50 [19] [µM] | GI50 [20] [µM] | GI50 [21] [µM] | also measured
1 | CC(C)(C)OC(=O)Nc1ccc(O)c(C(=O)NCCOC(=O)NCCNC(=O)c2cc(OCc3ccccc3)ccc2OCc2ccccc2)c1 [Compound Q012052, 2-[5-(BOC-amino)-2-hydroxybenzoylamino]ethyl 2-[2,5-bis-(benzyl-oxy)benzoylamino]ethylcarbamate] | 68.8 | > 100 | 8.97 | 29.1 | > 100 | > 100 | > 100 | > 100 | > 100 | > 100 | > 100 | > 100 | 89.8 | 83.1 | 15.6 | > 100 | > 100 | 80.1 | > 100 | > 100 | Percent PAI-1 inhibition ([7]; at the concentration given, percent of activity of untreated PAI-1): 45; Conc. of compound required for PAI-1 inhibition ([7]; concentration giving the percent inhibition, 6 nM PAI-1, 8 nM uPA): 50 nM; GI50 [22]: > 100 µM; GI50 [23]: > 100 µM
2 | COc1cc(CNc2ccc(C(=O)OC(C)(C)C)cc2)cc(CN2CCN(c3ccccn3)CC2)c1O [Compound Q012145T] | 84.3 | 61.5 | 24.8 | 46.9 | 48.6 | 74.5 | > 100 | 12.4 | 80.3 | > 100 | > 100 | > 100 | 8.3 | 6.57 | 33 | 12.7 | 46.4 | 52.9 | > 100 | 60.4 | Conc. of compound required for PAI-1 inhibition (result in words) [7]: No inhibition; GI50 [22]: > 100 µM; GI50 [23]: 83.3 µM
3 | CCOC(=O)[C@H](Cc1ccccc1)NCc1cc(CN2CCN(c3ccccn3)CC2)c(O)c(OC)c1 [Compound Q012147T] | > 100 | > 100 | > 100 | 70.2 | 60.2 | > 100 | > 100 | 37.5 | 76.5 | 73.4 | > 100 | 78.2 | 0.32 | 24.8 | 67.3 | 43.2 | 98.3 | 67.5 | > 100 | > 100 | Conc. of compound required for PAI-1 inhibition (result in words) [7]: No inhibition; GI50 [22]: > 100 µM; GI50 [23]: 99 µM

Reference: US20080280920A1, “Plasminogen Activator Inhibitor-1 Inhibitors” (priority 2005, published 2008)
